From patent publication US20130078718A1, “CONVERSION OF VASCULAR ENDOTHELIAL CELLS INTO MULTIPOTENT STEM-LIKE CELLS” (PRESIDENT AND FELLOWS OF HARVARD COLLEGE, priority 2010, published 2013)
“Also recorded” adds a separate entry of the source.

Tests used:
HUVEC and HCMEC = test: Mesenchymal stem cell marker expression in treated endothelial cells; type: cell-based, human; details: 10 ng/mL, 48 hours; for expression of mesenchymal stem cell genes CD10, CD13, CD44, CD73, CD90, CD120a, CD124 (real-time quantitative PCR): compared to control cells
Description: Human umbilical vein endothelial cells (HUVEC) and human cutaneous microvascular endothelial cells (HCMEC) were provided by J. Bischoff (Children's Hospital Boston) and isolated as previously described^35. […] Cells were grown in culture using EGM-2 medium (Cambrex), containing 10% FBS and 1% Penicillin/Streptomycin, followed by human endothelial serum free medium (Gibco) 24 hours prior to all experimental conditions. Bone marrow derived mesenchymal stem cells (ScienCell Research Laboratories) were grown in mesenchymal stem cell medium (ScienCell Research Laboratories). Human corneal fibroblasts, from a stock initially provided by E. Hay (Harvard Medical School), were grown in RPMI medium, containing 10% FBS and 1% Penicillin/Streptomycin. Primary human osteoblasts, chondrocytes, and adipocytes and their respective growth media were obtained from Cell Applications Inc. Recombinant TGF-β2 and BMP4 proteins (R&D Systems) were added to the serum free culture medium for all relevant experiments at a concentration of 10 ng/mL. Cells were treated for 15 minutes to assess ALK2 phosphorylation, 1 hour to measure Smad5 phosphorylation, or 48 hours to induce EndMT. All experiments for this study were performed at minimum in triplicate.
Immunoassays were performed using the following antibodies at concentrations (and using protocols) recommended by the respective manufacturers: FSP-1 (H00006275-M01; Stressgen), ALK2 (sc-5671), Phospho-tyrosine (sc-7020), VE-cadherin (sc-6458), TIE2 (sc-324, sc-9026), STRO-1 (sc-47733), CD44 (sc-71220), CD90 (sc-9163), Osteocalcin (sc-74495, sc-23790), SOX9 (sc-20095), COL2A1 (sc-59958, sc-52658), PPARγ2 (sc-22022; Santa Cruz Biotechnology), vWF (ab68545; Abcam); His (A00174; GenScript); α-SMA (A5228), β-actin (A1978; Sigma-Aldrich). Samples were run with Criterion precast SDS-PAGE Gels (Bio-Rad). HRP-conjugated IgG TrueBlot reagents (18-8814, 18-8816, 18-8817; eBioscience) were used at a dilution of 1:1000. TrueBlot IgG beads (eBioscience) were used for immunoprecipitation experiments. Alexa Fluor secondary antibodies (Invitrogen) were used at a dilution of 1:200. Images were acquired using a Nikon 80i fluorescence microscope.
Endothelial cells were stained in suspension using antibodies against TIE2, FSP-1, STRO-1, and His (described above) and the protocols provided by their respective manufacturer. Flow cytometry was performed at the Harvard Medical School, Department of Pathology flow cytometry core facility using a FACSDCalibur (BD Biosciences) cell sorter isolating 30,000 cells per sample.
RNA extractions were performed using the RNeasy Mini kit (Qiagen) and protocol. RNA samples were submitted to a core facility (Biopolymers Facility, Department of Genetics, Harvard Medical School) where real-time PCR experiments were conducted using the Syber Green PCR system (ABI) on an ABI 7500 cycler, with 40 cycles per sample. Cycling temperatures were as follows: denaturing 95° C.; annealing 60° C.; extension, 70° C. The following primers (Integrated DNA Technologies) were used: […]
Human umbilical vein endothelial cells (HUVEC) and human cutaneous microvascular endothelial cells (HCMEC) isolated as previously described (35). […] Cells were grown in culture using EGM-2 medium (Cambrex), containing 10% FBS and 1% Penicillin/Streptomycin, followed by human endothelial serum free medium (Gibco) 24 h prior to all experimental conditions.

ALK2 with ALK5 = molecular target: T1, ALK2 with ALK5 (Homo sapiens, UniProt Q04771); test: Interaction of ALK2 with ALK5: immunoprecipitation of ALK2, immunoblotting for ALK5; type: cell-based; details: 10 ng ml−1, 15 min
T1 construct: endogenous in cells; host or cells: HUVEC
T1 sequence (Q04771 21-509): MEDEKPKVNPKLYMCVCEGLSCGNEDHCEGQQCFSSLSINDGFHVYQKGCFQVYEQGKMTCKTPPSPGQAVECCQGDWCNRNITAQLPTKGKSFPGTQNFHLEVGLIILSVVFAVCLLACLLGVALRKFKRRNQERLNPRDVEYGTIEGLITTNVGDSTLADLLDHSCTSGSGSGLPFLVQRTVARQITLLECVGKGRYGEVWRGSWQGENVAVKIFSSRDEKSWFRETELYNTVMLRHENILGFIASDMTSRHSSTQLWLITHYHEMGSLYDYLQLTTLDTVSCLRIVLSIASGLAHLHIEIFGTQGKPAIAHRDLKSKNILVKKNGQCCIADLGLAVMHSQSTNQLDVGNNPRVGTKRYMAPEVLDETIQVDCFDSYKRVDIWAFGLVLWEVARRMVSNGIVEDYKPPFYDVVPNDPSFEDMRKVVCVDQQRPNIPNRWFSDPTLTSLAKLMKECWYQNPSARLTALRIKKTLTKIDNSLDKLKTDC
Description: Human umbilical vein endothelial cells (HUVEC) and human cutaneous microvascular endothelial cells (HCMEC) isolated as previously described (35). Cells were tested for purity and found to express no markers for lymphatic endothelial cells or stromal cells (pericytes, smooth muscle cells, etc.) (36). This was reconfirmed by flow cytometry analysis (data not shown). Clonal populations were isolated with PYREX 8×8 mm cloning cylinders (Corning) and shown to respond in a manner identical to that of the cultures used for our experiments (FIG. 25B-D). Cells were grown in culture using EGM-2 medium (Cambrex), containing 10% FBS and 1% Penicillin/Streptomycin, followed by human endothelial serum free medium (Gibco) 24 h prior to all experimental conditions. Bone marrow derived mesenchymal stem cells (ScienCell Research Laboratories) were grown in mesenchymal stem cell medium (ScienCell Research Laboratories). Bone marrow derived hematopoietic stem cells (Lonza) were grown in HPGM medium (Lonza). Human corneal fibroblasts, from a stock provided by Dr. Elizabeth Hay (Harvard Medical School), were grown in RPMI medium, containing 10% FBS and 1% Penicillin/Streptomycin. Primary human osteoblasts, chondrocytes, and adipocytes and their respective growth media were obtained from Cell Applications, Inc. […] Recombinant VEGF (R&D Systems) was added to cultures at a concentration of 25 ng ml^-1. Dorsomorphin (Sigma-Aldrich) was added to cultures at a concentration of 5 μM. All experiments for this study were performed at minimum in triplicate. Immunoassays were performed using the following antibodies at concentrations (and using protocols) recommended by the respective manufacturers: […] Stressgen), phospho-Smad2 (3101), Smad2 (3122), phospho-Smad5 (9516), Smad5 (9517; […] Santa Cruz Biotechnology), osterix (ab22552), adiponectin (ab22554), N-cadherin (ab76057), NG2 (ab83508), vWF (ab68545; Abcam); CD31 (IR610; Dako), […]; GenScript); α-SMA ([…]), β-actin (A1978; Sigma-Aldrich). […] Images were acquired using a Nikon 80i fluorescence microscope.

| ALK5 in ALK2 immunoprecipitates (ALK2 with ALK5) | Substance | STRO-1 and other mesenchymal stem cell markers (immunoblotting) (HUVEC and HCMEC) | co-expression of TIE2 and mesenchymal stem cell marker STRO-1 (immunofluorescence microscopy or flow cytometry) (HUVEC and HCMEC) | expression of mesenchymal stem cell genes CD10, CD13, CD44, CD73, CD90, CD120a, CD124 (real-time quantitative PCR) (HUVEC and HCMEC) |
| --- | --- | --- | --- | --- |
| presence of ALK5 | TGF-β2: Recombinant TGF-β2 protein (R&D Systems), ALK2 activating ligand, used at 10 ng/mL | strongly expressed | strong co-expression; also recorded: massive co-expression | greatly increased |
| presence of ALK5 | BMP4: Recombinant BMP4 protein (R&D Systems), ALK2 activating ligand, used at 10 ng/mL | strongly expressed | strong co-expression; also recorded: massive co-expression | greatly increased |
